Experimental data from ChEMBL document CHEMBL3085750, “Discovery of 2-methylpyridine-based biaryl amides as γ-secretase modulators for the treatment of Alzheimer's disease” (Bioorg Med Chem Lett, 2013).
Values belong to the compound of their own block, whether it stands above or below them. Calls of active or inactive are those of the source. The calls are words filed in the database; no cut-off is given here.

Legend:
[1] = Metabolic stability in rat liver microsomes at 1 uM after 30 mins; type: ADME; conditions: read-out: Stability
Cytochrome P450 2D6 = Cytochrome P450 2D6 (Homo sapiens, UniProt P10635); experiment: Inhibition of CYP2D6 (unknown origin) after 10 mins; type: ADME
Sequence of Cytochrome P450 2D6 (P10635 whole entry): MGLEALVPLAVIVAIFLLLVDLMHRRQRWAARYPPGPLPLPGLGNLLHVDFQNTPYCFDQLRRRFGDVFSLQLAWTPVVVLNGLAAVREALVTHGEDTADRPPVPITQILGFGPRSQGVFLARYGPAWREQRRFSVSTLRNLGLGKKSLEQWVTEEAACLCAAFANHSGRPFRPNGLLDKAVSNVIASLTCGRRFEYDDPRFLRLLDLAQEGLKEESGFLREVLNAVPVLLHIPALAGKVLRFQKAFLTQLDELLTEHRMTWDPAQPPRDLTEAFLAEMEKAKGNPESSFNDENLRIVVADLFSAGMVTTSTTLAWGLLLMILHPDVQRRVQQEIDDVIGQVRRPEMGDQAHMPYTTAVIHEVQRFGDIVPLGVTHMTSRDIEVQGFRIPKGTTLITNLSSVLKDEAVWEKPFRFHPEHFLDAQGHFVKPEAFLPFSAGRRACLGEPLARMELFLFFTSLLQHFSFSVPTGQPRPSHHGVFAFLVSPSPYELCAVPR

[2] = molecular target: T1, Gamma-secretase (Homo sapiens) (UniProt Q96BI3+Q9NZ42+Q8WW43+P49768+Q92542+P49810); experiment: Modulation of gamma-secretase in HEK293 cells expressing guinea pig Swedish mutant SFV-APP695sw assessed as inhibition of amyloid beta-42 production at 10 uM after 16 to 18 hrs by HTRF assay relative to control; type: cell-based
Gamma-secretase [3] = experiment: Modulation of gamma-secretase in HEK293 cells expressing guinea pig Swedish mutant SFV-APP695sw assessed as inhibition of amyloid beta-42 production after 16 to 18 hrs by HTRF assay; type: cell-based, Homo sapiens
[4] = Metabolic stability in human liver microsomes at 1 uM after 30 mins; type: ADME; conditions: read-out: Stability
Cytochrome P450 3A4 = Cytochrome P450 3A4 (Homo sapiens, UniProt P08684); experiment: Inhibition of CYP3A4 (unknown origin) after 5 mins; type: ADME
Sequence of Cytochrome P450 3A4 (P08684 whole entry): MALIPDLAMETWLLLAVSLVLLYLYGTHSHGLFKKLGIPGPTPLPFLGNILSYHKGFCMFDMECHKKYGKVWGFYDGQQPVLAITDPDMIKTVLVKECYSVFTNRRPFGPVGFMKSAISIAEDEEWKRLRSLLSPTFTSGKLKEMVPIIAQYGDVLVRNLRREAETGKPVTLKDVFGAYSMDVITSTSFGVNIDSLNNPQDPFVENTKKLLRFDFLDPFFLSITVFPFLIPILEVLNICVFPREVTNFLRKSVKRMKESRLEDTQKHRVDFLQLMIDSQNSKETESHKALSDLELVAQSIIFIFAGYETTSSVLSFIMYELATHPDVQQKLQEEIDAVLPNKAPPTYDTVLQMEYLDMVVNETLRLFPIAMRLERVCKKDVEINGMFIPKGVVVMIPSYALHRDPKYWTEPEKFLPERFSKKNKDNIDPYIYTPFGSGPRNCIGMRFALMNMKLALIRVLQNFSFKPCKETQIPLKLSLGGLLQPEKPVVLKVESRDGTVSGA

[5] = Ratio of drug level in brain to plasma in mouse at 10 mg/kg, po after 2 hrs; type: ADME, organism-based; design: dose 10 mg/kg, route oral; conditions: read-out: BPR
[6] = Ratio of drug level in brain to plasma in Sprague-Dawley rat; type: ADME, cell-free; conditions: read-out: BPR
Rattus norvegicus [7] = experiment: Reduction of amyloid beta-42 level in Sprague-Dawley rat CSF at 100 mg/kg, po after 4 hrs by immunoassay relative to control; type: functional
Gamma-secretase [8] = experiment: Modulation of gamma-secretase in HEK293 cells expressing guinea pig Swedish mutant SFV-APP695sw assessed as inhibition of amyloid beta-40 production after 16 to 18 hrs by HTRF assay; type: cell-based, Homo sapiens
Plasma [9] = experiment: Unbound plasma concentration in Sprague-Dawley rat; type: ADME, cell-free
[10] = Apparent permeability in pig LLC-PK1 cells; type: ADME, cell-based, Sus scrofa
[11] = Drug level in Sprague-Dawley rat CSF; type: ADME, Cerebrospinal fluid; conditions: in vivo, read-out: Ct
[12] = AUC (0 to 24 hrs) in Sprague-Dawley rat at 3 mg/kg at day 4; type: ADME, organism-based; design: time < 24 hr, dose 3 mg/kg; conditions: plasma
[13] = AUC (0 to 24 hrs) in Sprague-Dawley rat at 3 mg/kg at day 1; type: ADME, organism-based; design: time < 24 hr, dose 3 mg/kg; conditions: plasma
Plasma [14] = experiment: Unbound plasma concentration in Sprague-Dawley rat at 1 mg/kg; type: ADME, organism-based; design: dose 1 mg/kg; conditions: in vivo
Rattus norvegicus [15] = experiment: Reduction of amyloid beta-42 level in Sprague-Dawley rat CSF at 3 mg/kg after 24 hrs by immunoassay relative to control; type: functional; design: scale not given: the % may be the effect or the level left
Rattus norvegicus [16] = experiment: Toxicity in Sprague-Dawley rat assessed as marginal zone lymphoid depletion in spleen at 1 to 3 mg/kg after 4 days by light microscopic analysis; type: organism-based; design: dose 1-3 mg/kg; conditions: in vivo, 96 h
Rattus norvegicus [17] = experiment: Toxicity in Sprague-Dawley rat assessed as presence of mixed inflammatory infiltrate with mild villus blunting and fusion in duodenum at 1 to 3 mg/kg after 4 days by light microscopic analysis; type: organism-based; design: dose 1-3 mg/kg; conditions: in vivo, other, 96 h
Rattus norvegicus [18] = experiment: Reduction of amyloid beta-42 level in Sprague-Dawley rat CSF at 1 mg/kg after 4 hrs by immunoassay relative to control; type: functional; design: scale not given: the % may be the effect or the level left
Rattus norvegicus [19] = experiment: Toxicity in Sprague-Dawley rat assessed as increase in neutrophils and monocytes in peripheral blood at 1 to 3 mg/kg after 4 days by light microscopic analysis; type: organism-based; design: dose 1-3 mg/kg; conditions: in vivo, 96 h
Rattus norvegicus [20] = experiment: Toxicity in Sprague-Dawley rat assessed as thickening of hypertrophic zone of tibial physis at 1 to 3 mg/kg after 4 days by light microscopic analysis; type: organism-based; design: dose 1-3 mg/kg; conditions: in vivo, 96 h
[21] = Plasma protein binding in Sprague-Dawley rat; type: ADME, cell-free; conditions: read-out: PPB (converted)
Rattus norvegicus [22] = experiment: Toxicity in Sprague-Dawley rat assessed as increased goblet cell numbers in colon at 1 to 3 mg/kg after 4 days by light microscopic analysis; type: organism-based; design: dose 1-3 mg/kg; conditions: in vivo, 96 h
Rattus norvegicus [23] = experiment: Toxicity in Sprague-Dawley rat assessed as thymic cortical lymphoid depletion at 1 to 3 mg/kg after 4 days by light microscopic analysis; type: organism-based; design: dose 1-3 mg/kg; conditions: in vivo, 96 h
Rattus norvegicus [24] = experiment: Toxicity in Sprague-Dawley rat assessed as increased goblet cell numbers in duodenum at 1 to 3 mg/kg after 4 days by light microscopic analysis; type: organism-based; design: dose 1-3 mg/kg; conditions: in vivo, other, 96 h
Rattus norvegicus [25] = experiment: Reduction of amyloid beta-42 level in Sprague-Dawley rat CSF at 3 mg/kg after 4 hrs by immunoassay relative to control; type: functional; design: scale not given: the % may be the effect or the level left
[26] = Efflux ratio of apparent permeability in pig LLC-PK1 cells; type: ADME, cell-based, Sus scrofa
[27] = Half life in cynomolgus monkey at 2 mg/kg, iv; type: ADME, organism-based, Macaca fascicularis; design: dose 2 mg/kg, route intravenous; conditions: in vivo
Rattus norvegicus [28] = experiment: Reduction of amyloid beta-42 level in Sprague-Dawley rat CSF at 300 mg/kg, po after 24 hrs by immunoassay relative to control; type: functional; design: scale not given: the % may be the effect or the level left
Rattus norvegicus [29] = experiment: Reduction of amyloid beta-42 level in Sprague-Dawley rat CSF at 100 mg/kg, po after 24 hrs by immunoassay relative to control; type: functional; design: scale not given: the % may be the effect or the level left
Gamma-secretase [30] = experiment: Modulation of gamma-secretase in HEK293 cells expressing guinea pig Swedish mutant SFV-APP695sw coexpressing DLL4 assessed as inhibition of notch processing in human TE671 cells after 3 days by dual-cell luciferase reporter gene assay; type: cell-based
Brain = experiment: Drug uptake in Sprague-Dawley rat brain at 100 mg/kg, po after 4 to 36 hrs by LC/MS analysis; type: ADME, organism-based; design: dose 100 mg/kg, route oral; conditions: in vivo
[31] = Volume of distribution at steady state in rat at 2 mg/kg, iv; type: ADME, organism-based; design: dose 2 mg/kg, route intravenous; conditions: in vivo, read-out: Vdss
Rattus norvegicus [32] = experiment: Toxicity in Sprague-Dawley rat assessed as histopathological changes at 30 to 300 mg/kg, po after 4 days by light microscopic analysis; type: organism-based; design: dose 30-300 mg/kg, route oral; conditions: in vivo, 96 h
[33] = Half life in rat at 2 mg/kg, iv; type: ADME, organism-based; design: dose 2 mg/kg, route intravenous; conditions: in vivo
[34] = Oral bioavailability in cynomolgus monkey at 5 mg/kg; type: ADME, organism-based, Macaca fascicularis; conditions: in vivo
Rattus norvegicus [35] = experiment: Toxicity in Sprague-Dawley rat assessed as notch-associated effects at 30 to 300 mg/kg, po after 4 days by light microscopic analysis; type: organism-based; design: dose 30-300 mg/kg, route oral; conditions: in vivo, 96 h
[36] = Clearance in cynomolgus monkey at 2 mg/kg, iv; type: ADME, organism-based, Macaca fascicularis; design: dose 2 mg/kg, route intravenous; conditions: in vivo
[37] = Clearance in rat at 2 mg/kg, iv; type: ADME, organism-based; design: dose 2 mg/kg, route intravenous; conditions: in vivo
Rattus norvegicus [38] = experiment: Reduction of amyloid beta level in Sprague-Dawley rat CSF at 100 mg/kg, po after 36 hrs by immunoassay; type: functional, organism-based; design: dose 100 mg/kg
[39] = Oral bioavailability in rat at 5 mg/kg; type: ADME, organism-based; conditions: in vivo
Rattus norvegicus [40] = experiment: Reduction of amyloid beta-42 level in Sprague-Dawley rat brain at 100 mg/kg, po after 4 hrs by immunoassay relative to control; type: functional; design: scale not given: the % may be the effect or the level left
Rattus norvegicus [41] = experiment: Reduction of amyloid beta-42 level in Sprague-Dawley rat CSF at 30 mg/kg, po after 24 hrs by immunoassay relative to control; type: functional; design: scale not given: the % may be the effect or the level left
[42] = molecular target: T1, Gamma-secretase (Homo sapiens); experiment: Selectivity ratio of IC50 for gamma-secretase-mediated notch processing in HEK293 cells by dual-cell luciferase reporter gene assay to IC50 for gamma-secretase-mediated amyloid beta-42 production in HEK293 cells by HTRF assay; type: cell-based
Plasma [43] = experiment: Drug uptake in Sprague-Dawley rat plasma at 100 mg/kg, po after 4 to 36 hrs by LC/MS analysis; type: ADME, organism-based; design: dose 100 mg/kg, route oral; conditions: in vivo
[44] = Volume of distribution at steady state in cynomolgus monkey at 2 mg/kg, iv; type: ADME, organism-based, Macaca fascicularis; design: dose 2 mg/kg, route intravenous; conditions: in vivo, read-out: Vdss
Plasma [45] = experiment: Unbound plasma concentration in Sprague-Dawley rat at 300 mg/kg; type: ADME, organism-based; design: dose 300 mg/kg; conditions: in vivo
Rattus norvegicus [46] = experiment: Reduction of amyloid beta-40 level in Sprague-Dawley rat brain at 100 mg/kg, po after 4 hrs by immunoassay; type: functional, organism-based; design: dose 100 mg/kg
[47] = Ratio of unbound plasma concentration in Sprague-Dawley rat to gamma-secretase-mediated amyloid beta-42 production in HEK293 cells; type: ADME, cell-based
Rattus norvegicus [48] = experiment: Reduction of amyloid beta-40 level in Sprague-Dawley rat CSF at 100 mg/kg, po after 4 hrs by immunoassay; type: functional, organism-based; design: dose 100 mg/kg

Structure (SMILES): Cc1cc(-c2ccc(NC(=O)c3cc(C(F)(F)F)cc(C(F)(F)F)c3)cc2)ccn1
microsomal CLint at 1 µM [1]: 14 µL/min/mg
IC50 (Cytochrome P450 2D6): > 27 µM
inhibition [2]: 58%
IC50 (Gamma-secretase [3]): > 10 µM
microsomal CLint at 1 µM [4]: 106 µL/min/mg
IC50 (Cytochrome P450 3A4): > 27 µM

Structure (SMILES): Cc1cc(-c2ccc(NC(=O)[C@@H](C)c3cc(C(F)(F)F)cc(C(F)(F)F)c3)cc2)ccn1
microsomal CLint at 1 µM [1]: < 14 µL/min/mg
IC50 (Cytochrome P450 2D6): 2.6 µM
Kp [6]: 2
IC50 (Gamma-secretase [3]): > 10 µM
microsomal CLint at 1 µM [4]: < 14 µL/min/mg
IC50 (Cytochrome P450 3A4): > 27 µM
Activity (Rattus norvegicus [7]): inactive

Structure (SMILES): CCN(CC)c1ccc(C)c(Nc2nc(-c3ccc(-n4cnc(C)c4)cc3)cs2)c1
IC50 (Gamma-secretase [8]): 0.56 µM
IC50 (Gamma-secretase [3]): 0.13 µM

Continued, in another order:

microsomal CLint at 1 µM [1]: 19 µL/min/mg
IC50 (Cytochrome P450 2D6): > 27 µM
inhibition [2]: 53%
IC50 (Gamma-secretase [3]): > 10 µM
microsomal CLint at 1 µM [4]: 91 µL/min/mg
IC50 (Cytochrome P450 3A4): > 27 µM
Kp at 2 h [5]: 1.46
Structure (SMILES): Cc1cc(-c2ccc(NC(=O)c3cc(Cl)cc(Cl)c3)cc2)ccn1

IC50 (Gamma-secretase [3]): 0.02 µM
Cp(f) (Plasma [9]): 290 nM
Papp [10]: < 1 ×10⁻⁶ cm/s
concentration [11]: 2 nM
Structure (SMILES): Cc1cc(-c2ccc(NC(=O)[C@H](CC(C)C)c3cccc(-c4ccc(N5CCOCC5)cc4)c3)cc2)ccn1
Activity (Rattus norvegicus [7]): 27%

AUC(0-t) at 24 h [12]: 144 ng·h/mL
AUC(0-t) at 24 h [13]: 386 ng·h/mL
Cp(f) (Plasma [14]): 0.4 nM
Cp(f) (Plasma [9]): 1.2 nM
fraction unbound [21]: 0.053
Structure (SMILES): C[C@H](NC(=O)[C@@H](O)c1cc(F)cc(F)c1)C(=O)N[C@@H]1C(=O)N(C)c2ccccc2-c2ccccc21
Activity (Rattus norvegicus [15]): 37%
Activity (Rattus norvegicus [16]): Toxic
Activity (Rattus norvegicus [17]): Toxic
Activity (Rattus norvegicus [18]): 33%
Activity (Rattus norvegicus [19]): Toxic
Activity (Rattus norvegicus [20]): Toxic
Activity (Rattus norvegicus [22]): Toxic
Activity (Rattus norvegicus [23]): Toxic
Activity (Rattus norvegicus [24]): Toxic
Activity (Rattus norvegicus [25]): 66%

efflux ratio [26]: 1.2
half-life [27]: 15.9 h
microsomal CLint at 1 µM [1]: < 14 µL/min/mg
IC50 (Gamma-secretase [30]): 11.8 µM
IC50 (Cytochrome P450 2D6): 4.1 µM
Drug uptake (Brain): Active
IC50 (Gamma-secretase [8]): 3.1 µM
Vd [31]: 4.3 L/kg
Kp [6]: 2
half-life [33]: 6 h
bioavailability [34]: 56%
IC50 (Gamma-secretase [3]): 0.26 µM
clearance [36]: 2.67 mL/min/kg
microsomal CLint at 1 µM [4]: < 14 µL/min/mg
clearance [37]: 9.67 mL/min/kg
bioavailability [39]: 100%
IC50 (Cytochrome P450 3A4): > 27 µM
Papp [10]: 7.8 ×10⁻⁶ cm/s
Ratio IC50 [42]: 45
Drug uptake (Plasma [43]): Active
Vd [44]: 3.1 L/kg
Cp(f) (Plasma [45]): 0.57 nM
Ratio [47]: 2
Structure (SMILES): Cc1cc(-c2ccc(NC(=O)[C@H](C)c3cc(C(F)(F)F)cc(C(F)(F)F)c3)cc2)ccn1
Activity (Rattus norvegicus [28]): 55%
Activity (Rattus norvegicus [29]): 44%
Activity (Rattus norvegicus [32]): Non-toxic
Activity (Rattus norvegicus [35]): Non-toxic
Activity (Rattus norvegicus [38]): Active
Activity (Rattus norvegicus [40]): 33%
Activity (Rattus norvegicus [7]): 41%
Activity (Rattus norvegicus [41]): 32%
Activity (Rattus norvegicus [46]): inactive
Activity (Rattus norvegicus [48]): inactive
